Assay results: ChEMBL document CHEMBL1201862, “PubChem BioAssay data set” (2004)
Calls of active or inactive are those of the source.

Key:
Keap1/Nrf2 = Keap1/Nrf2 (Homo sapiens, UniProt Q14145); test: disruptors of Keap1 binding to Nrf2 peptide – biochemical, fluorescence polarization, cherry-picked samples, dose response (AID 588683)
[1] = molecular target: UDP-galactopyranose mutase (Mycobacterium tuberculosis, UniProt P9WIQ1); test: Inhibitors of Mycobacterium tuberculosis UDP-galactopyranose mutase (UGM) enzyme Measured in Biochemical System Using Plate Reader - 2105-02_Inhibitor_Dose_CherryPick_Activity. [Related pubchem assays (depositor defined):AID504439]
ORF 73 = molecular target: T1, ORF 73 (Human herpesvirus 8, UniProt O40947); test: KSHV LANA DNA-binding disruption – biochemical, fluorescence polarization, cherry-picked samples, dose response (AID 504725); parameters: species or system Human gammaherpesvirus 8;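 note: fluorescence polarization of a labeled DNA duplex reporting LANA DNA binding; potency is for inhibitors that block LANA binding to the DNA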
T1 sequence (O40947 whole entry): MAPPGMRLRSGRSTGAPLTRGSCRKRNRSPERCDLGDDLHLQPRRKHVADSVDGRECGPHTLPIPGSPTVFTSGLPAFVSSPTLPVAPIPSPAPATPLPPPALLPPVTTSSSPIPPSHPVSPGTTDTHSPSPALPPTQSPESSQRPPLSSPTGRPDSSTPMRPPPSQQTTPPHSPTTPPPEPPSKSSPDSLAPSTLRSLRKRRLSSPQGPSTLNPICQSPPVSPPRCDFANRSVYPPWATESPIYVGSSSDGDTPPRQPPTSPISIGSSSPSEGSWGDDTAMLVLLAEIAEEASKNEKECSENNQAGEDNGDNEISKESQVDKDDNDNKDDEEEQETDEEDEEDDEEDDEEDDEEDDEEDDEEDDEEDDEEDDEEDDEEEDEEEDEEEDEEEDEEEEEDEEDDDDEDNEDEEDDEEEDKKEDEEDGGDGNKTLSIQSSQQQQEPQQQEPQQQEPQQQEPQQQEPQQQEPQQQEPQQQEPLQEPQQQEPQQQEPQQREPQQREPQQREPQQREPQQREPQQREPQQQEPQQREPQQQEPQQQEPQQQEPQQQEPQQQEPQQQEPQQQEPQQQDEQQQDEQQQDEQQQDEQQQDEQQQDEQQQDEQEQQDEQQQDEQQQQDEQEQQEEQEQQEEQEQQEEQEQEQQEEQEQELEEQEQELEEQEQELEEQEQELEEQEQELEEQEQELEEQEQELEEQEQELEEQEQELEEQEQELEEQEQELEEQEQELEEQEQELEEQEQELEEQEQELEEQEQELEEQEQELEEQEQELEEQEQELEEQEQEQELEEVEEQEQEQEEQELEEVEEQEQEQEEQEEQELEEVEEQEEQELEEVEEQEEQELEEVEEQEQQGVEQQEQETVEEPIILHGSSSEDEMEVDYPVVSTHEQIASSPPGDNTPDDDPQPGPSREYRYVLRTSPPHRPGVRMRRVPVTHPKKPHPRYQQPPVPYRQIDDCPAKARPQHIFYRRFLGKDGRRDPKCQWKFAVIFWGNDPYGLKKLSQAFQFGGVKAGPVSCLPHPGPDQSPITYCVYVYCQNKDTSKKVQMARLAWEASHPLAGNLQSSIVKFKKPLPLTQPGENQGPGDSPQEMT

[2] = decrease of insulin promoter-GFP reporter – imaging, high-content screening, mouse beta cells (AID 1628); assay type: functional; conditions: MIN6
[3] = MIN6 cell viability loss – mouse insulinoma, cytotoxicity control, dose response (AID 2122); assay type: functional;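 note: confirmatory high-throughput counterscreen run to flag cytotoxic compounds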
Cytochrome P450 3A4 = Cytochrome P450 3A4 (Homo sapiens, UniProt P08684);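 note: CYP3A4 tested as one member of a cytochrome P450 panel screen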
Cytochrome P450 2D6 = Cytochrome P450 2D6 (Homo sapiens, UniProt P10635);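 note: CYP2D6 member of a cytochrome P450 panel assay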
Cytochrome P450 1A2 = molecular target: T2, Cytochrome P450 1A2 (Homo sapiens, UniProt P05177);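 note: PubChem cytochrome P450 panel assay, CYP1A2 panel member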
T2 sequence (P05177 whole entry): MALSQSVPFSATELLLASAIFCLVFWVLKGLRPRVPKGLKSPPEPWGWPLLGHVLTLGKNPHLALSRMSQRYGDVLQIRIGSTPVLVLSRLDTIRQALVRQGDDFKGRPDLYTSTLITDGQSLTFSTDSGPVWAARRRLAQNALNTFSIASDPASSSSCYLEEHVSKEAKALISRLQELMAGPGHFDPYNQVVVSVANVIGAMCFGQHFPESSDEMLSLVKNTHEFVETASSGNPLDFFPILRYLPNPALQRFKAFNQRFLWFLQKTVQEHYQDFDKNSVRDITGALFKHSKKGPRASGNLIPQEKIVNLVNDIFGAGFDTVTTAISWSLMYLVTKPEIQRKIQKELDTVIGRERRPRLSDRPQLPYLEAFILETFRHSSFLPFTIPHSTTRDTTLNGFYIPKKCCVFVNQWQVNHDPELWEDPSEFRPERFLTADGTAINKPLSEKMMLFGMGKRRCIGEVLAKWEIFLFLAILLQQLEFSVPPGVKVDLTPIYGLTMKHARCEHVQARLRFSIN

[4] = HEK-293T viability loss after treatment – luminescence, T-cell screen hits, cytotoxicity control for TCR NF-kB inhibitor project, dose response (AID 489026); assay type: functional, cell-based;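 note: cells exposed to compound about 14 hours before the viability readout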
HEK293 [5] = test: cells; assay type: functional, cell-based; conditions: Homo sapiens
HEK293 [6] = test: NOD2 signaling inhibitors in MDP-stimulated cells, cell-based, uHTS, luminescence (AID 2001); assay type: functional; conditions: Homo sapiens
HEK293 [7] = test: inhibition of NOD1-driven NF-kB reporter – cell-based, luminescence, uHTS, primary screen (AID 1578); assay type: functional; conditions: Homo sapiens
HEK293 [8] = test: cells; assay type: functional, cell-based; conditions: Homo sapiens; remark: listed apart in the source
INS1 = test: INS-1E survival protection against cytokine death – cell-based, luminescence, retest, dose response (AID 449756); assay type: functional; conditions: Rattus norvegicus;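 note: cell death triggered by IL-1 beta plus TNF-alpha plus IFN-gamma mixture; protective hits raise ATP signal compared with cytokine alone wells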
[9] = molecular target: T3, Corticotropin-releasing factor receptor 2/Corticotropin-releasing factor-binding protein (Homo sapiens, UniProt P24387+Q13324); test: Dose Response confirmation of uHTS hits for small molecule antagonists of the CRF-binding protein and CRF-R2 receptor complex.; assay type: functional; conditions: read-out: IC50_Mean
T3 sequence (Q13324 whole entry): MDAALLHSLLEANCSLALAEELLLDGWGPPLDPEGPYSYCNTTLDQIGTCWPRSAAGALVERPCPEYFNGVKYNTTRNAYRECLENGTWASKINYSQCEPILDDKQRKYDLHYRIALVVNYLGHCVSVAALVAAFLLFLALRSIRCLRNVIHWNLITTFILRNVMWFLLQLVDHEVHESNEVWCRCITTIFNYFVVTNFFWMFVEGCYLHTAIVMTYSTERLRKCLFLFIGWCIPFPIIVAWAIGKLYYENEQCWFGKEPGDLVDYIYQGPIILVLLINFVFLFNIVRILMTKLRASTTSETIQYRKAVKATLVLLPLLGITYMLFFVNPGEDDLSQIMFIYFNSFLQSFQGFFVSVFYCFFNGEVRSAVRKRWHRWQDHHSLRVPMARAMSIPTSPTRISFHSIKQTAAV
T3 sequence (P24387 whole entry): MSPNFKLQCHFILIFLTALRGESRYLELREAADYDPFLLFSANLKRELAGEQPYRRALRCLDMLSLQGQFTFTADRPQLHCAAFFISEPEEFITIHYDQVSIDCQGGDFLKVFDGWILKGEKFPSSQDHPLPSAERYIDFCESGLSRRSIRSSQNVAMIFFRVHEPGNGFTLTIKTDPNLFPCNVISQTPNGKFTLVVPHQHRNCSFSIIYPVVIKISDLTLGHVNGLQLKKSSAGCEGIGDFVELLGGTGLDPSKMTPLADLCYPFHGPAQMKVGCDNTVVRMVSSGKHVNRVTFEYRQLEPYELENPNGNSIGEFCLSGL

[10] = molecular target: T3, Corticotropin-releasing factor receptor 2/Corticotropin-releasing factor-binding protein; test: activators of CRF receptor 2 with binding protein – uHTS hits, confirmation (AID 602473); assay type: functional; conditions: read-out: EC50_Mean
[11] = molecular target: T4, High affinity choline transporter 1 (Homo sapiens, UniProt Q9GZV3); test: human choline transporter blockers, potency – cell-based, 5-point CRC, membrane potential dye, dose response (AID 504840); assay type: functional
T4 sequence (Q9GZV3 whole entry): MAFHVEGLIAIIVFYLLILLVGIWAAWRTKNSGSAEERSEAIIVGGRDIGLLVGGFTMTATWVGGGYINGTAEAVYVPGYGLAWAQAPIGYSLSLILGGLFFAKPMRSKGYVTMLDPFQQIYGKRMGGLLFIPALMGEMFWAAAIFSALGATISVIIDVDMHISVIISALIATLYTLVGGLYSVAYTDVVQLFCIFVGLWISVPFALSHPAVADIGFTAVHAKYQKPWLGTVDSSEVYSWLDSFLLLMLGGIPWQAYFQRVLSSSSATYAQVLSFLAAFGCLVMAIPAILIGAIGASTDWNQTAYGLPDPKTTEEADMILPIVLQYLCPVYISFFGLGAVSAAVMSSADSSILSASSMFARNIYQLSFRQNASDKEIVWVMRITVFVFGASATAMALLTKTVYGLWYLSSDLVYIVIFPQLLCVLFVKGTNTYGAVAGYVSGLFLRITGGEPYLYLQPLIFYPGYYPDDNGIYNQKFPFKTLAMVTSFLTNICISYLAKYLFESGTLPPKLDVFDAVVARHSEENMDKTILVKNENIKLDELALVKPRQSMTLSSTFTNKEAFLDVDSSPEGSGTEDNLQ

[12] = THP-1 cell cytotoxicity, dose response, cytotoxicity control for non-replicating M. tuberculosis project (AID 489025); assay type: functional
cells = assay type: functional
[13] = HepG2 cell cytotoxicity, dose response, cytotoxicity control for non-replicating M. tuberculosis project (AID 489018); assay type: functional; conditions: Mycobacterium tuberculosis
[14] = non-specific 3'UTR reporter inhibition in Clone20-Shn3RL – cell-based, Renilla luciferase, cherry-picked, counter-screen for Shn3 inhibitor project, dose response (AID 624133); assay type: functional
[15] = Vero E6 cell cytotoxicity, dose response, cytotoxicity control for non-replicating M. tuberculosis project, secondary assay (AID 492998); assay type: functional, VeroE6; conditions: Vero C1008
[16] = reduction of Shn3 3'UTR-driven luciferase in osteoblasts – cell-based, Clone20 osteoblasts, firefly luciferase, cherry-picked, dose response (AID 624132); assay type: functional;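 note: firefly luciferase luminescence from reporter carrying the Shn3 3'UTR in osteoblasts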
[17] = loss of viability in HepG2 cells – cell-based, CellTiter-Glo, cherry-picked, cytotoxicity control for Shn3 inhibitor project, dose response (AID 624134); assay type: functional
SUMO E1/E2 = SUMO E1/E2 (Homo sapiens, UniProt P63279+Q9UBE0+Q9UBT2); test: SAR analysis of SUMOylation using HTRF in an in-Vitro dose response assay. [Related pubchem assays (depositor defined):AID2006, AID2011, AID2018, AID2069, AID2658]; assay type: functional
[18] = reduced cellular PGC1a acetyl-lysine signal – cell-based, cherry-picked samples, dose response (AID 720514); assay type: functional;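 note: potency may reflect raised or lowered acetylation signal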
[19] = HEK-293T viability loss, compound-treated – cell-based, uHTS hits, cytotoxicity control for B/T-cell NF-kB inhibitor project, dose response (AID 489019); assay type: functional;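 note: IC50 reflects cytotoxicity as loss of cell viability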
Jurkat = test: blockers of NF-kB activation in T cells – Jurkat, luciferase reporter, luminescence, B- and T-cell, dose response (AID 489004); assay type: functional, cell-based; conditions: Homo sapiens;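 note: NF-kB luciferase reporter Jurkat cells stimulated with PMA plus ionomycin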

Chain of Cytochrome P450 3A4 (P08684 whole entry): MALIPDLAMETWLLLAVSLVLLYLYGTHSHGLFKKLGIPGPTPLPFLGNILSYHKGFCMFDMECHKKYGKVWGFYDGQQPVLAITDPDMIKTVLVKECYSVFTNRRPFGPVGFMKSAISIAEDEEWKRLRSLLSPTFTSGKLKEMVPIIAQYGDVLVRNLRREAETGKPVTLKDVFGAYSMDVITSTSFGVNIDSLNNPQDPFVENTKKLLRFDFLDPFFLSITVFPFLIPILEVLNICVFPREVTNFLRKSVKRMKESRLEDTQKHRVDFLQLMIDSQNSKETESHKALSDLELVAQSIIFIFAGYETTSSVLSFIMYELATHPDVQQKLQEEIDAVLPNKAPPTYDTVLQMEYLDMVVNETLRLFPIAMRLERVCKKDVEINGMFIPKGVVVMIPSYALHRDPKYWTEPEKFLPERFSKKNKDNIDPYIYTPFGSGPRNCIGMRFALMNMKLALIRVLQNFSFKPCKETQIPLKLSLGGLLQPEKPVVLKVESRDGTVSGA
Chain of UDP-galactopyranose mutase (P9WIQ1 whole entry): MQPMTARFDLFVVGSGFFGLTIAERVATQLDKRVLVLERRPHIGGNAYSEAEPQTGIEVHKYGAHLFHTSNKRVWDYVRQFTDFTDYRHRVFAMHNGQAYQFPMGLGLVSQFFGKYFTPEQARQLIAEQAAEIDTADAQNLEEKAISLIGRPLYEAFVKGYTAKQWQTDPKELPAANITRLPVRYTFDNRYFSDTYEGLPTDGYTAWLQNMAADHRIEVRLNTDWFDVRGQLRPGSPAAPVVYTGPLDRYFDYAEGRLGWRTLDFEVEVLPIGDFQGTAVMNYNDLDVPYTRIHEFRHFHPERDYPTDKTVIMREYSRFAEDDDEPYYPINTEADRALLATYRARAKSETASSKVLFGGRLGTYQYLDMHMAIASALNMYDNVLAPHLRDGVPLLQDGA
Chain of SUMO E1/E2 (Q9UBE0 whole entry): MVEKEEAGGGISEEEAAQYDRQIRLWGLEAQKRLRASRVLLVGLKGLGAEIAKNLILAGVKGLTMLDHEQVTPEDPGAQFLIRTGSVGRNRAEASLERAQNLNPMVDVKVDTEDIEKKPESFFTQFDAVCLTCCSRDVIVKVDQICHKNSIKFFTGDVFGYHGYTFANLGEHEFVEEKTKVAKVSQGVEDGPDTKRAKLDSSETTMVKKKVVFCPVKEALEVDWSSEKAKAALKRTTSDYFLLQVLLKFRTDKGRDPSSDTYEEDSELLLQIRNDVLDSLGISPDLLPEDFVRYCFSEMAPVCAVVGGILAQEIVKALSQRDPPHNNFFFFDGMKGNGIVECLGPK
Chain of SUMO E1/E2 (Q9UBT2 whole entry): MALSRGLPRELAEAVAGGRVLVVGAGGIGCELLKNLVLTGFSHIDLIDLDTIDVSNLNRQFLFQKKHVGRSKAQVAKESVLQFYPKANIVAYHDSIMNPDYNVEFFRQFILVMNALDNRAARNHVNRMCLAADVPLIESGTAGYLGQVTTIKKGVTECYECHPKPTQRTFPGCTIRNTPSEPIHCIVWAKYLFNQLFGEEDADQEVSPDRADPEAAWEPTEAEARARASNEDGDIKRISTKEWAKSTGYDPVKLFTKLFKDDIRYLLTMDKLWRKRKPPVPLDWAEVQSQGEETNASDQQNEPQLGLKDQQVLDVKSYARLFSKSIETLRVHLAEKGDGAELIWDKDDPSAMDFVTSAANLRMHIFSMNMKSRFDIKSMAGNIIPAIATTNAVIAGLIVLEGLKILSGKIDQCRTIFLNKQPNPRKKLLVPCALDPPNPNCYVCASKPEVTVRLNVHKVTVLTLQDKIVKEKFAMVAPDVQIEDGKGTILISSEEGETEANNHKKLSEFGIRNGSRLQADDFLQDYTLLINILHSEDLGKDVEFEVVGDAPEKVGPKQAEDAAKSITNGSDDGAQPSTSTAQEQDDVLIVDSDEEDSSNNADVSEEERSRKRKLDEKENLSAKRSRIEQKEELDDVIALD
Chain of SUMO E1/E2 (P63279 whole entry): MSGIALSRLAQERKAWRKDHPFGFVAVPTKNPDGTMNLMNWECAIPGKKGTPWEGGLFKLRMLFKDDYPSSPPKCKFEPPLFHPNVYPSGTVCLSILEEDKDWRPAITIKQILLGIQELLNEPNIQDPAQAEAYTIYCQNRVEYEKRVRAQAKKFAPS
Chain of Cytochrome P450 2D6 (P10635 whole entry): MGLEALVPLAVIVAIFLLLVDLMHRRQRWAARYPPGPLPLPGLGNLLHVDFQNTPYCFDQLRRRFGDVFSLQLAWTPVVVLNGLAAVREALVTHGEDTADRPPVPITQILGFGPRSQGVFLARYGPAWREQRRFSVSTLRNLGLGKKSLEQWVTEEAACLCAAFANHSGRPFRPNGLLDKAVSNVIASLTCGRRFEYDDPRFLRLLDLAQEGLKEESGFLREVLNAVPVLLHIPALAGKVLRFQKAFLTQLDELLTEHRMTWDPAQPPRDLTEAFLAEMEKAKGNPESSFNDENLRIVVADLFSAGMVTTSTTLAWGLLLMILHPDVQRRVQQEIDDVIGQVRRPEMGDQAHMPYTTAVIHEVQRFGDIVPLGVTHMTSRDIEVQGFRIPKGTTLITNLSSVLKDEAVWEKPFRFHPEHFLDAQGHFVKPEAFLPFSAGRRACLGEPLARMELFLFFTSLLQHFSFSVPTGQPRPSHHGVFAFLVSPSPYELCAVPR
Chain of Keap1/Nrf2 (Q16236 whole entry): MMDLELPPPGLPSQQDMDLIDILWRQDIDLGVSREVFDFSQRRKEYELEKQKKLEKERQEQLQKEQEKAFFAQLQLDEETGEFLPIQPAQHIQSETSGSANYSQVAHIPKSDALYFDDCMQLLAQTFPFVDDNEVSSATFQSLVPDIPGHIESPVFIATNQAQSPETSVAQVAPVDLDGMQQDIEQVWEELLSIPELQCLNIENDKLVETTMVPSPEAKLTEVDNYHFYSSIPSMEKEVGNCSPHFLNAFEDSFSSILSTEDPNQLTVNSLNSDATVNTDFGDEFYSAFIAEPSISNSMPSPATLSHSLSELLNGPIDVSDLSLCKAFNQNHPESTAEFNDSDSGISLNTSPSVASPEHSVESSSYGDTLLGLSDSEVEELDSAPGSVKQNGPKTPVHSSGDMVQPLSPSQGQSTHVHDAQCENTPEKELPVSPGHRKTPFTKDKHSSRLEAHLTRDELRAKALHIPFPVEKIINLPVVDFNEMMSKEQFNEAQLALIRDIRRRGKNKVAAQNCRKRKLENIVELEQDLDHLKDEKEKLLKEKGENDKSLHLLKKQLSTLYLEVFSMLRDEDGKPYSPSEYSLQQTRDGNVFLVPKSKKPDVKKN
Chain of Keap1/Nrf2 (Q14145 whole entry): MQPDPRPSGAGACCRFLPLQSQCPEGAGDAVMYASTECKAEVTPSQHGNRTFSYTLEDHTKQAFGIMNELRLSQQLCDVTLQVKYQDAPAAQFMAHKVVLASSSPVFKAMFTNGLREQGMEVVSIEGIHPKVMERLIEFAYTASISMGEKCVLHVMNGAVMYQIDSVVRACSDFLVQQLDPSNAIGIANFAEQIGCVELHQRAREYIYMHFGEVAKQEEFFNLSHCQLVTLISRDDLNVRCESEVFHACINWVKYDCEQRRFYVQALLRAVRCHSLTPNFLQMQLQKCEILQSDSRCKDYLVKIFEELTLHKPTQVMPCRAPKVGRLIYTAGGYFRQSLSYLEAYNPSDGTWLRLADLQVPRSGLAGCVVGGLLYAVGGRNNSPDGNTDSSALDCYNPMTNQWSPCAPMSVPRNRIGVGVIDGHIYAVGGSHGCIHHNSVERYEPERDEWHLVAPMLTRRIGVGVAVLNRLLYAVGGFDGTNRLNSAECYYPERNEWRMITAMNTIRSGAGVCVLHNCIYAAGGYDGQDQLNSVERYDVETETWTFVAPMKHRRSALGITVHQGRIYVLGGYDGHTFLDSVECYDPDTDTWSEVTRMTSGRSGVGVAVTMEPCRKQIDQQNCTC

Compound: Nc1ccc2nc3c(=O)n(C4CCCCC4)c(=O)[nH]c3nc2c1
- AC50 (Keap1/Nrf2): 9.04 µM (active)
- AC50 [1]: 2.64 µM (active)
- AC50 (ORF 73): 1.42 µM (active)

Compound: S=C(NCCC1=CCCCC1)NCc1ccco1
- IC50 [2]: 2.95 µM (active)
- IC50 [3]: 2.64 µM (active)

Compound: COCCCNC(=O)c1ccc2c(=O)n(CC3CCCO3)c(=S)[nH]c2c1 (centres undefined)
- AC50 (Cytochrome P450 3A4): inconclusive
- AC50 (Cytochrome P450 2D6): 0.178 µM (inconclusive)
- AC50 (Cytochrome P450 1A2): 20 µM (inconclusive)

Compound: CCn1nc(C)c(CNC(=O)c2ccc(OC3CCN(Cc4ccccn4)CC3)cc2)c1C
- IC50 [4]: > 80 µM (inactive)
- IC50 (HEK293 [5]): 13.8 µM (active)
- IC50 (HEK293 [6]): 9.64 µM (active)
- EC50 (HEK293 [7]): 2.57 µM (active)
- IC50 (HEK293 [8]): 4.94 µM (active)
- AC50 (INS1): 3.87 µM (active)

Compound: O=c1[nH]c(=O)n(-c2ccc(F)cc2)c2c1C(C(F)(F)F)(C(F)(F)F)N=C(c1ccc(F)cc1)N2
- IC50 [9]: 4.69 µM (active)
- EC50 [10]: > 53 µM (inactive)
- IC50 [11]: 12 µM (active)

Compound: Cc1cc(C)nc(N=C(N)Nc2ccc(-c3ccccc3)cc2)n1
- IC50 [9]: > 47.1 µM (inactive)
- IC50 [2]: 1.56 µM (active)
- CC50 [12]: 9.89 µM (active)
- EC50 [10]: 31.7 µM (active)
- IC50 (cells): 39 µM (active)
- CC50 [13]: 18.2 µM (active)
- AC50 [14]: 22.6 µM (active)
- CC50 [15]: > 20 µM (active)
- IC50 [3]: 1.36 µM (active)
- AC50 [16]: 4.45 µM (active)
- AC50 [17]: > 70 µM (inactive)

Compound: CCCN(CCc1ccccc1)[C@H]1CCc2c(O)cccc2C1
- AC50 (Cytochrome P450 3A4): inconclusive
- AC50 (Cytochrome P450 1A2): 12.6 µM (inconclusive)

Compound: O=C1c2oc3ccccc3c(=O)c2C(c2ccccc2)N1c1nccs1 (centres undefined)
- IC50 (SUMO E1/E2): 22.4 µM (active)

Compound: Cc1cccc(NS(=O)(=O)c2cccc(C(=O)NCC(c3ccco3)N3CCCCC3)c2)c1 (centres undefined)
- AC50 [18]: 32.2 µM (active)
- IC50 [11]: 22 µM (active)

Compound: COCC(=O)N1CCN(c2ccc([N+](=O)[O-])cc2)CC1
- AC50 (Cytochrome P450 3A4): inconclusive

Compound: CC1(c2ccc3ccccc3c2)NC(=O)N(CC(=O)N2CCN(Cc3ccc(C#N)cc3)CC2)C1=O (centres undefined)
- IC50 [19]: > 80 µM (inactive)
- IC50 (Jurkat): > 80 µM (inactive)
- AC50 [14]: 1.04 µM (active)
- AC50 [16]: 0.416 µM (active)
- AC50 [17]: < 0.26 µM (active)
